Measured values: article PMC3486884 (PLoS Pathogens, 2012)
Like-named read-outs stand apart in the source and are kept apart here.

Tests used:
[1] = test system: HRV1A; details: for relative infection: n=2
[2] = test system: HRV1A; assay: microbe, parasite or virus in culture; details: Human rhinovirus sp.; for activity at 0.03 µM / activity at 0.1 µM / activity at 0.31 µM / activity at 0.93 µM / activity at 2.78 µM / activity at 8.33 µM / activity at 25 µM: M-HeLa, 7 h; for activity at 0.03 µM: read-out: HRV1A infection (dsRNA), 0.03 µM; for activity at 0.1 µM: read-out: HRV1A infection (dsRNA), 0.10 µM; for activity at 0.31 µM: read-out: HRV1A infection (dsRNA), 0.31 µM; for activity at 0.93 µM: read-out: HRV1A infection (dsRNA), 0.93 µM; for activity at 2.78 µM: read-out: HRV1A infection (dsRNA), 2.78 µM; for activity at 8.33 µM: read-out: HRV1A infection (dsRNA), 8.33 µM; for activity at 25 µM: read-out: HRV1A infection (dsRNA), 25.00 µM
[3] = test system: HRV14; details: n=2
[4] = test system: HRV2; assay: microbe, parasite or virus in culture; details: Human rhinovirus sp., HRV2, HeLa, read-out: IC50 (HRV2)
[5] = test system: CVB3; details: n=2
[6] = test system: HRV16; details: n=2
[7] = test system: CVA21; details: n=2
[8] = test system: CVA21; assay: microbe, parasite or virus in culture; details: Coxsackievirus, CVA21, HeLa, read-out: IC50 (CVA21)
[9] = test system: influenza virus (strain A/Puerto Rico/8/34/H1N1 depicted PR8); assay: microbe, parasite or virus in culture; details: unidentified influenza virus, A549, read-out: IC50 (PR8)
[10] = test system: CVB4; details: n=2
[11] = test system: HRV14; assay: microbe, parasite or virus in culture; details: Human rhinovirus sp., HRV14, HeLa, read-out: IC50 (HRV14)
[12] = test system: HRV2; details: n=2

For `COc1ccccc1C(=O)Nc1ccc(C(F)(F)F)cc1Cl` [TVB-1323], the “antiviral activity against HRV1A (structure-activity study, in words)” value (“antiviral activity against HRV1A” below) [1] was “reduced antiviral efficacy”, the activity at 0.03 µM [2] was 101% and the activity at 0.1 µM [2] was 95%. It also gave an activity at 0.31 µM [2] of 97%, an activity at 0.93 µM [2] of 97% and an activity at 2.78 µM [2] of 106%. The activity at 8.33 µM [2] was 108% and the activity at 25 µM [2] was 113%.
With `COc1c(C)cccc1C(=O)Nc1ccc([N+](=O)[O-])cc1Cl` [TVB-1324] the “antiviral activity against HRV1A” value [1] was “eliminated antiviral activity”, the activity at 0.03 µM [2] was 104% and the activity at 0.1 µM [2] was 105%. For the same compound, the activity at 0.31 µM [2] was 98%, the activity at 0.93 µM [2] was 99% and the activity at 2.78 µM [2] was 88%. The activity at 8.33 µM [2] was 94% and the activity at 25 µM [2] was 107%.
With `COC(=O)c1ccc(Cl)c(NC(=O)c2ccccc2OC)c1` [TVB-1325] the “antiviral activity against HRV1A” value [1] was “reduced antiviral efficacy”, the activity at 0.03 µM [2] was 91% and the activity at 0.1 µM [2] was 97%. For the same compound, the activity at 0.31 µM [2] was 86%, the activity at 0.93 µM [2] was 95% and the activity at 2.78 µM [2] was 83%. It also gave an activity at 8.33 µM [2] of 73% and an activity at 25 µM [2] of 80%.
In the case of `CCC(=O)Nc1ccc(Cl)c(NC(=O)c2ccccc2OC)c1` [TVB-1327], the “antiviral activity against HRV1A” value [1] is reported as “reduced antiviral efficacy”, the activity at 0.03 µM [2] is reported as 118% and the activity at 0.1 µM [2] is reported as 118%. It also gave an activity at 0.31 µM [2] of 110%, an activity at 0.93 µM [2] of 107% and an activity at 2.78 µM [2] of 96%. It also gave an activity at 8.33 µM [2] of 107% and an activity at 25 µM [2] of 115%.
In the case of `CCOc1ccccc1C(=O)Nc1ccc([N+](=O)[O-])cc1Cl` [TVB-1328], the “antiviral activity against HRV1A” value [1] is reported as “eliminated antiviral activity”, the activity at 0.03 µM [2] is reported as 99% and the activity at 0.1 µM [2] is reported as 90%. For the same compound, the activity at 0.31 µM [2] was 86%, the activity at 0.93 µM [2] was 89% and the activity at 2.78 µM [2] was 90%. For the same compound, the activity at 8.33 µM [2] was 95% and the activity at 25 µM [2] was 107%.
With `O=C(Nc1ccc([N+](=O)[O-])cc1Cl)c1cc(Cl)ccc1OCCOc1ccccc1` [TVB-1329] the relative infection ([3]; 0.1 µM) was 0.86, the relative infection ([3]; 0.3 µM) was 0.87 and the relative infection ([3]; 0.9 µM) was 0.97. It also gave a relative infection ([3]; 2.8 µM) of 0.86, a relative infection ([3]; 8.3 µM) of 0.58 and a relative infection ([3]; 25.0 µM) of 0.10. For the same compound, the IC50 [4] was 5.07 µM, the relative infection ([5]; 0.1 µM) was 0.97 and the relative infection ([5]; 0.3 µM) was 1.06. The relative infection ([5]; 0.9 µM) was 1.19, the relative infection ([5]; 2.8 µM) was 1.25 and the relative infection ([5]; 8.3 µM) was 1.07. The relative infection ([5]; 25.0 µM) was 1.01, the relative infection ([6]; 0.1 µM) was 0.84 and the relative infection ([6]; 0.3 µM) was 0.98. For the same compound, the relative infection ([6]; 0.9 µM) was 1.04, the relative infection ([6]; 2.8 µM) was 1.26 and the relative infection ([6]; 8.3 µM) was 0.99. For the same compound, the relative infection ([6]; 25.0 µM) was 0.14, the “antiviral activity against HRV1A” value [1] was “did not diminish the antiviral efficacy compared to niclosamide” and the relative infection ([1]; 0.1 µM) was 1.00. It also gave a relative infection ([1]; 0.3 µM) of 1.04, a relative infection ([1]; 0.9 µM) of 1.10 and a relative infection ([1]; 2.8 µM) of 1.02. It also gave a relative infection ([1]; 8.3 µM) of 0.59, a relative infection ([1]; 25.0 µM) of 0.05 and a relative infection ([7]; 0.1 µM) of 0.86. It also gave a relative infection ([7]; 0.3 µM) of 0.97, a relative infection ([7]; 0.9 µM) of 1.08 and a relative infection ([7]; 2.8 µM) of 1.13. It also gave a relative infection ([7]; 8.3 µM) of 1.29, a relative infection ([7]; 25.0 µM) of 0.68 and an IC50 [8] of roughly 26.6 µM. The IC50 [9] was 10.3 µM, the relative infection ([10]; 0.1 µM) was 1.12 and the relative infection ([10]; 0.3 µM) was 1.28. The relative infection ([10]; 0.9 µM) was 1.51, the relative infection ([10]; 2.8 µM) was 1.62 and the relative infection ([10]; 8.3 µM) was 1.33. The relative infection ([10]; 25.0 µM) was 0.46, the IC50 [11] was 9.3 µM and the relative infection ([12]; 0.1 µM) was 1.03. The relative infection ([12]; 0.3 µM) was 1.10, the relative infection ([12]; 0.9 µM) was 0.98 and the relative infection ([12]; 2.8 µM) was 0.68. It also gave a relative infection ([12]; 8.3 µM) of 0.36, a relative infection ([12]; 25.0 µM) of 0.02 and an IC50 ([2]; HeLa, read-out: IC50 (HRV1A)) of 9.34 µM. It also gave an activity at 0.03 µM [2] of 112%, an activity at 0.1 µM [2] of 112% and an activity at 0.31 µM [2] of 119%. For the same compound, the activity at 0.93 µM [2] was 123%, the activity at 2.78 µM [2] was 111% and the activity at 8.33 µM [2] was 47%. It also gave an activity at 25 µM [2] of 6%.
